Results from US6218379A, “Tricyclic carbacephems” (Hoffmann-la Roche Inc., priority 1996, dated 2001).
≈ marks a conversion by molar mass, not a printed value.

Columns and labels:
[1] = tested on: Citrobacter freundii 1982; assay: Antibacterial activity in vitro (MIC) against Citrobacter freundii 1982; assay type: cell-based; conditions: read-out: MIC C. freundii 1982
Protocol: (§1) The minimum inhibitory concentration in vitro (MIC in μg/ml) of a compound of formula I against Citrobacter freundii 1982 and Staphylococcus aureus 887 is measured and compiled in Table 2.

[2] = tested on: Staphylococcus aureus 887; assay: Antibacterial activity in vitro (MIC) against Staphylococcus aureus 887; assay type: cell-based; conditions: read-out: MIC S. aureus 887
Protocol: as §1

SMILES: CC(=O)N1C[C@H]2CC(/C=C/c3cc4ccccc4[n+](CC(N)=O)c3)=C(C(=O)[O-])N3C(=O)[C@@H]1[C@@H]23 [Example 68, (E)-(1aS,3aR,6bR)-2-Acetyl-5-[2-(1-carbamoylmethyl-quinolin-1-ium-3-yl)-vinyl]-1-oxo-1a,2,3,3a,4,6b-hexahydro-1H-2,6a-diaza-cyclobut[cd]indene-6-carboxylate]
- MIC [1]: 16 µg/mL (≈ 35.8 µM)
- MIC [2]: 0.5 µg/mL (≈ 1.12 µM)

SMILES: CC(=O)N1C[C@H]2CC(/C=C/c3ccc[n+](C/C=C/c4ccccc4)c3)=C(C(=O)[O-])N3C(=O)[C@@H]1[C@@H]23 [Example 69, (1aS,3aR,6bR)-2-Acetyl-1-oxo-5-[(E)-2-[1-[(E)-3-phenylallyl]-pyridin-1-ium-3-yl)-vinyl]-1a,2,3,3a,4,6b-hexahydro-1H-2,6a-diaza-cyclobut[cd]indene-6-carboxylate]
- MIC [1]: 32 µg/mL (≈ 70.3 µM)
- MIC [2]: 0.25 µg/mL (≈ 0.549 µM)

SMILES: CC(=O)N1C[C@H]2CC(/C=C/c3ccc[n+](CC(=O)Nc4ccc(O)cc4)c3)=C(C(=O)[O-])N3C(=O)[C@@H]1[C@@H]23 [Example 70, (E)-(1aS,3aR,6bR)-2-Acetyl-5-[2-[1-[(4-hydroxyphenylcarbamoyl)-methyl]-pyridin-1-ium-3-yl)-vinyl]-1-oxo-1a,2,3,3a,4,6b-hexahydro-1H-2,6a-diaza-cyclobut[cd]indene-6-carboxylate]
- MIC [1]: 8 µg/mL (≈ 16.4 µM)
- MIC [2]: 0.25 µg/mL (≈ 0.512 µM)

SMILES: CC(=O)N1C[C@H]2CC(/C=C/c3ccc[n+](Cc4ccc(OC(F)(F)F)cc4)c3)=C(C(=O)[O-])N3C(=O)[C@@H]1[C@@H]23 [Example 71]
- MIC [1]: 64 µg/mL (≈ 125 µM)
- MIC [2]: 0.5 µg/mL (≈ 0.974 µM)

SMILES: CC(=O)N1C[C@H]2CC(/C=C/c3cccc[n+]3CC(N)=O)=C(C(=O)[O-])N3C(=O)[C@@H]1[C@@H]23 [Example 72, (E)-(1aS,3aR,6bR)-2-Acetyl-5-[2-(1-carbamoylmethyl-pyridin-1-ium-2-yl)-vinyl]-1-oxo-1a,2,3,3a,4,6b-hexahydro-1H-2,6a-diaza-cyclobut[cd]indene-6-carboxylate]
- MIC [1]: 64 µg/mL (≈ 161 µM)
- MIC [2]: 64 µg/mL (≈ 161 µM)
